How the values were obtained:
Assay type in all cases: in vivo
barnyardgrass (Ec) [1] = experiment: Test Example 1: herbicidal effects by paddy field soil treatment; details: 100 g of the active ingredient per 10 ares, 21st day after the application, index 0-5 of Table 47;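 also: grade of growth control; 5 = at least 90%; 4 = 70 to 90%; 3 = 50 to 70%; 2 = 30 to 50%; 1 = 10 to 30%; 0 = under 10%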
Summary of the method: (§1)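 Flooded paddy-soil pots (3 cm water) sown after puddling/leveling; treatment 100 g a.i./10 ares; greenhouse culture; herbicidal effect rated visually on a scoring scale at 21 d post-application.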

bulrush (Sc) = experiment: as above; details: 100 g of the active ingredient per 10 ares, 21st day after the application, index 0-5 of Table 47;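 also: grade of growth control; 5 = at least 90%; 4 = 70 to 90%; 3 = 50 to 70%; 2 = 30 to 50%; 1 = 10 to 30%; 0 = under 10%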
Summary of the method: as §1

monochoria (Mo) = experiment: as above; details: 100 g of the active ingredient per 10 ares, 21st day after the application, index 0-5 of Table 47;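 also: grade of growth control; 5 = at least 90%; 4 = 70 to 90%; 3 = 50 to 70%; 2 = 30 to 50%; 1 = 10 to 30%; 0 = under 10%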
Summary of the method: as §1

barnyardgrass (Ec) [2] = experiment: Test Example 3: herbicidal effects by upland field foliage treatment; design: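 grade of growth control; 5 = at least 90%; 4 = 70 to 90%; 3 = 50 to 70%; 2 = 30 to 50%; 1 = 10 to 30%; 0 = under 10%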
Summary of the method: (§2)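 Pot culture: sand, 120 cm^2 surface; seeds sown, soil-covered, greenhouse 2 weeks. Foliage treatment applied at that stage. Herbicidal effect rated by standard scale, day 14 post-treatment.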

Diaitaria ciliaris (Di) = experiment: as above; design: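 grade of growth control; 5 = at least 90%; 4 = 70 to 90%; 3 = 50 to 70%; 2 = 30 to 50%; 1 = 10 to 30%; 0 = under 10%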
Summary of the method: as §2

rice flatsedge (Ci) [3] = experiment: as above; design: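 grade of growth control; 5 = at least 90%; 4 = 70 to 90%; 3 = 50 to 70%; 2 = 30 to 50%; 1 = 10 to 30%; 0 = under 10%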
Summary of the method: as §2

[4] = tested on: common lambsquarters (Ch); experiment: as above; design: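 grade of growth control; 5 = at least 90%; 4 = 70 to 90%; 3 = 50 to 70%; 2 = 30 to 50%; 1 = 10 to 30%; 0 = under 10%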
Summary of the method: as §2

pale smartweed (Po) [5] = experiment: as above; design: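 grade of growth control; 5 = at least 90%; 4 = 70 to 90%; 3 = 50 to 70%; 2 = 30 to 50%; 1 = 10 to 30%; 0 = under 10%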
Summary of the method: as §2

slender amaranth (Am) [6] = experiment: as above; design: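 grade of growth control; 5 = at least 90%; 4 = 70 to 90%; 3 = 50 to 70%; 2 = 30 to 50%; 1 = 10 to 30%; 0 = under 10%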
Summary of the method: as §2

Digitaria ciliaris (Di) = experiment: Test Example 2: herbicidal effects by upland field soil treatment; details: 100 g of the active ingredient per 10 ares;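 also: grade of growth control; 5 = at least 90%; 4 = 70 to 90%; 3 = 50 to 70%; 2 = 30 to 50%; 1 = 10 to 30%; 0 = under 10%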
Source text: (§3) (Test on Herbicidal Effects by Upland Field Soil Treatment)

barnyardgrass (Ec) [7] = experiment: as above; details: 100 g of the active ingredient per 10 ares
Source text: as §3

rice flatsedge (Ci) [8] = experiment: as above; details: 100 g of the active ingredient per 10 ares
Source text: as §3

[9] = tested on: common lambsquarters (Ch); experiment: as above; details: 100 g of the active ingredient per 10 ares
Source text: as §3

pale smartweed (Po) [10] = experiment: as above; details: 100 g of the active ingredient per 10 ares
Source text: as §3

slender amaranth (Am) [11] = experiment: as above; details: 100 g of the active ingredient per 10 ares
Source text: as §3

[12] = 100 g of the active ingredient per 10 ares, evaluated on the 14th day after treatment
[13] = 21st day after the application, index 0-5 of Table 47
[14] = 100 g active ingredient per 10 ares, evaluated 14th day after treatment
[15] = evaluated on the 21st day after application

CC(C)Sc1cc(-c2ccc(C(F)(F)F)n(C)c2=O)c(Cl)cc1Cl [1-51] was tested, and the “Herbicidal effects Ec” value (barnyardgrass (Ec) [1]) was 5, the “Herbicidal effects Sc” value (bulrush (Sc)) was 5 and the “Herbicidal effects Mo” value (monochoria (Mo)) was 5. For the same compound, the “Herbicidal effects Ec” value (barnyardgrass (Ec) [2]; [12]) was 4, the “Herbicidal effects Di” value (Diaitaria ciliaris (Di); [12]) was 5 and the “Herbicidal effects Ci” value (rice flatsedge (Ci) [3]; [12]) was 5. For the same compound, the “Herbicidal effects Ch” value [4, 12] was 5, the “Herbicidal effects Po” value (pale smartweed (Po) [5]; [12]) was 5 and the “Herbicidal effects Am” value (slender amaranth (Am) [6]; [12]) was 5. For the same compound, the “Herbicidal effects Di” value (Digitaria ciliaris (Di); [13]) was 5, the “Herbicidal effects Ec” value (barnyardgrass (Ec) [7]; [13]) was 4 and the “Herbicidal effects Ci” value (rice flatsedge (Ci) [8]; [13]) was 5. For the same compound, the “Herbicidal effects Ch” value [9, 13] was 5, the “Herbicidal effects Po” value (pale smartweed (Po) [10]; [13]) was 5 and the “Herbicidal effects Am” value (slender amaranth (Am) [11]; [13]) was 5.
In the case of CCS(=O)(=O)Nc1cc(-c2ccc(C(F)(F)F)n(C)c2=O)c(F)cc1Cl [1-61], the “Herbicidal effects Ec” value (barnyardgrass (Ec) [1]) is reported as 5, the “Herbicidal effects Sc” value (bulrush (Sc)) is reported as 5 and the “Herbicidal effects Mo” value (monochoria (Mo)) is reported as 5. For the same compound, the “Herbicidal effects Ec” value (barnyardgrass (Ec) [2]; [12]) was 5, the “Herbicidal effects Di” value (Diaitaria ciliaris (Di); [12]) was 5 and the “Herbicidal effects Ci” value (rice flatsedge (Ci) [3]; [12]) was 5. For the same compound, the “Herbicidal effects Ch” value [4, 12] was 5, the “Herbicidal effects Po” value (pale smartweed (Po) [5]; [12]) was 5 and the “Herbicidal effects Am” value (slender amaranth (Am) [6]; [12]) was 5. The “Herbicidal effects Di” value (Digitaria ciliaris (Di); [13]) was 5, the “Herbicidal effects Ec” value (barnyardgrass (Ec) [7]; [13]) was 5 and the “Herbicidal effects Ci” value (rice flatsedge (Ci) [8]; [13]) was 5. For the same compound, the “Herbicidal effects Ch” value [9, 13] was 5, the “Herbicidal effects Po” value (pale smartweed (Po) [10]; [13]) was 5 and the “Herbicidal effects Am” value (slender amaranth (Am) [11]; [13]) was 5.
For CCOC(=O)C(C)Nc1cc(-c2ccc(C(F)(F)F)n(C)c2=O)c(F)cc1Cl (stereo not drawn) [1-64], the “Herbicidal effects Ec” value (barnyardgrass (Ec) [1]) was 5, the “Herbicidal effects Sc” value (bulrush (Sc)) was 5 and the “Herbicidal effects Mo” value (monochoria (Mo)) was 5. The “Herbicidal effects Ec” value (barnyardgrass (Ec) [2]; [12]) was 5, the “Herbicidal effects Di” value (Diaitaria ciliaris (Di); [12]) was 5 and the “Herbicidal effects Ci” value (rice flatsedge (Ci) [3]; [12]) was 5. The “Herbicidal effects Ch” value [4, 12] was 5, the “Herbicidal effects Po” value (pale smartweed (Po) [5]; [12]) was 5 and the “Herbicidal effects Am” value (slender amaranth (Am) [6]; [12]) was 5. The “Herbicidal effects Di” value (Digitaria ciliaris (Di); [13]) was 5, the “Herbicidal effects Ec” value (barnyardgrass (Ec) [7]; [13]) was 5 and the “Herbicidal effects Ci” value (rice flatsedge (Ci) [8]; [13]) was 5. The “Herbicidal effects Ch” value [9, 13] was 5, the “Herbicidal effects Po” value (pale smartweed (Po) [10]; [13]) was 5 and the “Herbicidal effects Am” value (slender amaranth (Am) [11]; [13]) was 5.
In the case of CCCN1C(=O)COc2cc(F)c(-c3ccc(C(F)(F)F)n(C)c3=O)cc21 [Compound 2-10], the “Herbicidal effects Ec” value (barnyardgrass (Ec) [2]; [14]) is reported as 5, the “Herbicidal effects Di” value (Diaitaria ciliaris (Di); [14]) is reported as 5 and the “Herbicidal effects Ci” value (rice flatsedge (Ci) [3]; [14]) is reported as 5. For the same compound, the “Herbicidal effects Ch” value [4, 14] was 5, the “Herbicidal effects Po” value (pale smartweed (Po) [5]; [14]) was 5 and the “Herbicidal effects Am” value (slender amaranth (Am) [6]; [14]) was 5. The “Herbicidal effects Di” value (Digitaria ciliaris (Di); [15]) was 5, the “Herbicidal effects Ec” value (barnyardgrass (Ec) [7]; [15]) was 5 and the “Herbicidal effects Ci” value (rice flatsedge (Ci) [8]; [15]) was 5. The “Herbicidal effects Ch” value [9, 15] was 5, the “Herbicidal effects Po” value (pale smartweed (Po) [10]; [15]) was 5 and the “Herbicidal effects Am” value (slender amaranth (Am) [11]; [15]) was 5.
With Cn1c(C(F)(F)F)ccc(-c2cc3c(cc2F)OCC(=O)N3CC=CCl)c1=O [Compound 2-14] the “Herbicidal effects Ec” value (barnyardgrass (Ec) [2]; [14]) was 5, the “Herbicidal effects Di” value (Diaitaria ciliaris (Di); [14]) was 5 and the “Herbicidal effects Ci” value (rice flatsedge (Ci) [3]; [14]) was 5. The “Herbicidal effects Ch” value [4, 14] was 5, the “Herbicidal effects Po” value (pale smartweed (Po) [5]; [14]) was 5 and the “Herbicidal effects Am” value (slender amaranth (Am) [6]; [14]) was 5. For the same compound, the “Herbicidal effects Di” value (Digitaria ciliaris (Di); [15]) was 5, the “Herbicidal effects Ec” value (barnyardgrass (Ec) [7]; [15]) was 5 and the “Herbicidal effects Ci” value (rice flatsedge (Ci) [8]; [15]) was 5. For the same compound, the “Herbicidal effects Ch” value [9, 15] was 5, the “Herbicidal effects Po” value (pale smartweed (Po) [10]; [15]) was 5 and the “Herbicidal effects Am” value (slender amaranth (Am) [11]; [15]) was 5.
For CCCOC(C)c1cc2c(-c3ccc(C(F)(F)F)n(C)c3=O)c(F)cc(Cl)c2o1 (stereo not drawn) [Compound 4-37], the “Herbicidal effects Ec” value (barnyardgrass (Ec) [2]; [14]) was 5, the “Herbicidal effects Di” value (Diaitaria ciliaris (Di); [14]) was 5 and the “Herbicidal effects Ci” value (rice flatsedge (Ci) [3]; [14]) was 5. For the same compound, the “Herbicidal effects Ch” value [4, 14] was 5, the “Herbicidal effects Po” value (pale smartweed (Po) [5]; [14]) was 5 and the “Herbicidal effects Am” value (slender amaranth (Am) [6]; [14]) was 5. The “Herbicidal effects Di” value (Digitaria ciliaris (Di); [15]) was 5, the “Herbicidal effects Ec” value (barnyardgrass (Ec) [7]; [15]) was 5 and the “Herbicidal effects Ci” value (rice flatsedge (Ci) [8]; [15]) was 5. The “Herbicidal effects Ch” value [9, 15] was 5, the “Herbicidal effects Po” value (pale smartweed (Po) [10]; [15]) was 5 and the “Herbicidal effects Am” value (slender amaranth (Am) [11]; [15]) was 5.
With Cn1cc(-c2ccc(Cl)cc2F)c(=O)cc1C(F)(F)F [Compound 6-2] the “Herbicidal effects Ec” value (barnyardgrass (Ec) [2]; [14]) was 4, the “Herbicidal effects Di” value (Diaitaria ciliaris (Di); [14]) was 5 and the “Herbicidal effects Ci” value (rice flatsedge (Ci) [3]; [14]) was 5. For the same compound, the “Herbicidal effects Ch” value [4, 14] was 5, the “Herbicidal effects Po” value (pale smartweed (Po) [5]; [14]) was 5 and the “Herbicidal effects Am” value (slender amaranth (Am) [6]; [14]) was 5. The “Herbicidal effects Di” value (Digitaria ciliaris (Di); [15]) was 5, the “Herbicidal effects Ec” value (barnyardgrass (Ec) [7]; [15]) was 4 and the “Herbicidal effects Ci” value (rice flatsedge (Ci) [8]; [15]) was 5. The “Herbicidal effects Ch” value [9, 15] was 5, the “Herbicidal effects Po” value (pale smartweed (Po) [10]; [15]) was 5 and the “Herbicidal effects Am” value (slender amaranth (Am) [11]; [15]) was 5.
